Data reported in article PMC8294059, “Identification and Immune Assessment of T Cell Epitopes in Five Plasmodium falciparum Blood Stage Antigens to Facilitate Vaccine Candidate Selection and Optimization” (Frontiers in Immunology, 2021).
pIC50: −log10 of the molar value. Like-named read-outs stand apart in the source and are kept apart here. Where a SMILES comes first, the peptide text is derived from it.

Experiments:
HLA-A*0101 = HLA-A*0101 (Homo sapiens, UniProt P04439, A114D/A174V/A182V/D101N/D185E/E176A/E190D/L180R/Q94H/R68K/S129P/T187R/V100A/V91M/W191G); experiment: biochemical; assay type: binding; settings: allele A*0101; for IC50: fluorescence polarization competition, read-out: IC50 (nM), in vitro HLA binding affinity; for pIC50: cell-free competition, fluorescence polarization at 72 hours, Non-binder = no dose-dependent inhibition, read-out: IC50
Protocol: (§1) A cell-free class I HLA binding assay that allows for in vitro quantification of peptide-HLA binding affinity in a competition format was used. In this assay, a fluorescently labeled, high binding, control peptide is loaded onto 384-well ½-area plates along with unlabeled experimental peptides. To remove endogenous peptides and render the HLA A and B molecules receptive to binding, HLA is heated at 53°C for 15 minutes and immediately added to the assay. The mixture is then allowed to stand for three days. Once the mixture has reached steady equilibrium (at 72 hours), displacement of the high binding control peptide is measured through fluorescence polarization. Binding of experimental peptides is expressed as the percent inhibition of the labeled control peptide (experimental fluorescence / control fluorescence, multiplied by 100). The percent inhibition values for each experimental peptide (across a range of molar concentrations) are used to calculate the concentration which inhibits 50% of the labeled control peptide’s specific binding. This value is referred to as the peptide’s IC50.

HLA-A*0201 = HLA-A*0201 (Homo sapiens, UniProt P04439, D140Y/D185E/D98H/E176V/E277Q/G131W/G231S/I119V/I121R/I166T/I218V/L300P/L318F/N151K/N90K/P208A/P217A/Q86G/Q94H/R138H/R169H/T345S); experiment: In vitro class I HLA binding assay (fluorescence polarization competition); settings: allele A*0201; fluorescence polarization competition
Protocol: as §1

## N=C(N)NCCC[C@H](NC(=O)[C@@H](N)Cc1c[nH]cn1)C(=O)N[C@@H](CCC(=O)O)C(=O)N[C@@H](Cc1c[nH]cn1)C(=O)N1CCC[C@H]1C(=O)N[C@@H](CCCCN)C(=O)N[C@@H](CCC(=O)O)C(=O)N[C@@H](Cc1ccc(O)cc1)C(=O)N[C@@H](CCC(=O)O)C(=O)N[C@@H](Cc1ccc(O)cc1)C(=O)O [AMA1_044] (H-HREHPKEYEY-OH)
HLA-A*0101
  IC50: 11100 nM

## CC[C@H](C)[C@H](NC(=O)[C@H](CCC(=O)O)NC(=O)[C@@H](NC(=O)[C@@H](N)CO)[C@@H](C)CC)C(=O)N[C@H](C(=O)N[C@@H](CCC(=O)O)C(=O)N[C@@H](CCCNC(=N)N)C(=O)N[C@@H](CO)C(=O)N[C@@H](CC(N)=O)C(=O)N[C@@H](Cc1ccc(O)cc1)C(=O)O)C(C)C [AMA1_096] (H-SIEIVERSNY-OH)
HLA-A*0101
  IC50: 12100 nM

## CC(C)C[C@H](N)C(=O)N[C@H](C(=O)N1CCC[C@H]1C(=O)N[C@H](C(=O)N[C@@H](C)C(=O)N[C@H](C(=O)NCC(=O)N[C@@H](CC(N)=O)C(=O)N[C@@H](CCC(N)=O)C(=O)N[C@@H](Cc1ccc(O)cc1)C(=O)O)[C@@H](C)O)C(C)C)[C@@H](C)O [AMA1_166] (H-LTPVATGNQY-OH)
HLA-A*0101
  IC50: 2560 nM

## CC[C@H](C)[C@H](N)C(=O)N1CCC[C@H]1C(=O)N[C@@H](CC(=O)O)C(=O)N[C@@H](CC(N)=O)C(=O)N[C@@H](CC(=O)O)C(=O)N[C@@H](CCCCN)C(=O)N[C@@H](CC(N)=O)C(=O)N[C@@H](CO)C(=O)N[C@@H](CC(N)=O)C(=O)N[C@@H](Cc1ccc(O)cc1)C(=O)O [AMA1_225] (H-IPDNDKNSNY-OH)
HLA-A*0101
  IC50: 14700 nM

## C[C@H](N)C(=O)N[C@@H](CO)C(=O)N[C@@H](CC(=O)O)C(=O)N[C@@H](CCC(N)=O)C(=O)N1CCC[C@H]1C(=O)N[C@@H](CCCCN)C(=O)N[C@@H](CCC(N)=O)C(=O)N[C@@H](Cc1ccc(O)cc1)C(=O)N[C@@H](CCC(=O)O)C(=O)N[C@@H](CCC(N)=O)C(=O)O [AMA1_346] (H-ASDQPKQYEQ-OH)
HLA-A*0101
  IC50: 126000 nM

## CC[C@H](C)[C@H](NC(=O)[C@H](Cc1c[nH]cn1)NC(=O)[C@@H](NC(=O)[C@H](CCC(=O)O)NC(=O)[C@H](CC(=O)O)NC(=O)[C@H](CCC(=O)O)NC(=O)[C@H](CCC(=O)O)NC(=O)CN)[C@@H](C)O)C(=O)N[C@@H](Cc1ccc(O)cc1)C(=O)O [CYRPA_070] (H-GEEDETHIY-OH)
HLA-A*0101
  IC50: 261000 nM

## CC(C)C[C@H](NC(=O)[C@@H](NC(=O)[C@H](CO)NC(=O)[C@@H](NC(=O)[C@@H](N)CC(=O)O)C(C)C)[C@@H](C)O)C(=O)N[C@@H](CC(N)=O)C(=O)N[C@@H](CC(=O)O)C(=O)N[C@@H](CCC(=O)O)C(=O)N[C@@H](Cc1ccc(O)cc1)C(=O)O [CYRPA_282] (H-DVSTLNDEY-OH)
HLA-A*0101
  IC50: 52200 nM

## CC[C@H](C)[C@H](NC(=O)[C@H](Cc1ccc(O)cc1)NC(=O)[C@H](CCC(=O)O)NC(=O)[C@H](CC(=O)O)NC(=O)[C@H](CC(N)=O)NC(=O)[C@@H](N)CC(C)C)C(=O)N[C@H](C(=O)N[C@@H](CO)C(=O)N[C@@H](Cc1ccc(O)cc1)C(=O)O)C(C)C [CYRPA_286] (H-LNDEYIVSY-OH)
HLA-A*0101
  IC50: 28100 nM

## CC[C@H](C)[C@H](NC(=O)[C@H](CO)NC(=O)[C@@H](N)CC(N)=O)C(=O)N[C@@H](CC(C)C)C(=O)N[C@H](C(=O)N[C@@H](CCCCN)C(=O)N1CCC[C@H]1C(=O)N[C@@H](CCC(=O)O)C(=O)N[C@@H](CCCCN)C(=O)N[C@@H](Cc1ccc(O)cc1)C(=O)O)[C@@H](C)CC [CYRPA_311] (H-NSILIKPEKY-OH)
HLA-A*0101
  IC50: 109000 nM

## CC[C@H](C)[C@H](NC(=O)[C@H](CC(C)C)NC(=O)[C@H](CO)NC(=O)[C@H](CO)NC(=O)[C@@H](N)[C@@H](C)O)C(=O)N[C@@H](CCCCN)C(=O)N[C@@H](CCC(N)=O)C(=O)N[C@@H](CC(N)=O)C(=O)N[C@@H](CCCCN)C(=O)N[C@@H](Cc1ccc(O)cc1)C(=O)O [EBA175_0114] (H-TSSLIKQNKY-OH)
HLA-A*0101
  pIC50: 4.43

## CC[C@H](C)[C@H](NC(=O)[C@H](CCCNC(=N)N)NC(=O)[C@H](CCC(=O)O)NC(=O)[C@@H](NC(=O)[C@@H](N)[C@@H](C)O)[C@@H](C)O)C(=O)N[C@@H](CO)C(=O)N[C@@H](CC(N)=O)C(=O)N[C@@H](CC(N)=O)C(=O)N[C@@H](CCC(=O)O)C(=O)N[C@@H](Cc1ccc(O)cc1)C(=O)O [EBA175_1084] (H-TTERISNNEY-OH)
HLA-A*0101
  pIC50: 6.04

## C[C@@H](O)[C@H](NC(=O)[C@@H](N)Cc1ccccc1)C(=O)N[C@@H](Cc1ccc(O)cc1)C(=O)N[C@@H](CC(=O)O)C(=O)N[C@@H](CO)C(=O)N[C@@H](CCC(=O)O)C(=O)N[C@@H](CCC(=O)O)C(=O)N[C@@H](Cc1ccc(O)cc1)C(=O)N[C@@H](Cc1ccc(O)cc1)C(=O)O [EBA175_1392] (H-FTYDSEEYY-OH)
HLA-A*0101
  pIC50: 6.87

## CC(C)C[C@H](NC(=O)[C@H](CCCCN)NC(=O)[C@H](CC(=O)O)NC(=O)[C@H](CC(C)C)NC(=O)[C@H](CC(N)=O)NC(=O)[C@H](CC(=O)O)NC(=O)[C@@H](NC(=O)[C@@H](N)C(C)C)[C@@H](C)O)C(=O)N[C@@H](CO)C(=O)N[C@@H](CC(N)=O)C(=O)O [EBA175_1465] (H-VTDNLDKLSN-OH)
HLA-A*0101
  pIC50: 3.73

## CC[C@H](C)[C@H](NC(=O)[C@H](CC(=O)O)NC(=O)[C@H](CC(=O)O)NC(=O)[C@H](CCCCN)NC(=O)[C@H](CCC(=O)O)NC(=O)[C@H](CCC(=O)O)NC(=O)[C@H](CCC(=O)O)NC(=O)[C@@H](NC(=O)[C@@H](N)CO)[C@@H](C)O)C(=O)N[C@@H](CCCCN)C(=O)O [RH5_46] (H-STEEEKDDIK-OH)
HLA-A*0101
  IC50: 6830 nM

## CC(C)C[C@H](NC(=O)CNC(=O)[C@H](CC(=O)O)NC(=O)[C@H](CC(N)=O)NC(=O)[C@@H](NC(=O)[C@H](CC(N)=O)NC(=O)[C@@H](NC(=O)[C@@H](N)CC(N)=O)[C@@H](C)O)C(C)C)C(=O)N[C@@H](CCCCN)C(=O)N[C@@H](Cc1ccc(O)cc1)C(=O)O [RH5_88] (H-NTNVNDGLKY-OH)
HLA-A*0101
  IC50: 4120 nM

## CC(C)[C@H](NC(=O)[C@H](CC(N)=O)NC(=O)[C@H](CCCCN)NC(=O)[C@H](Cc1ccc(O)cc1)NC(=O)[C@H](CC(=O)O)NC(=O)[C@H](CCC(=O)O)NC(=O)[C@H](CC(N)=O)NC(=O)[C@@H](N)CC(N)=O)C(=O)N[C@@H](CC(=O)O)C(=O)N[C@@H](Cc1ccc(O)cc1)C(=O)O [RH5_130] (H-NNEDYKNVDY-OH)
HLA-A*0101
  IC50: 7990 nM

## CC(C)[C@H](NC(=O)[C@H](CC(N)=O)NC(=O)[C@H](CCCCN)NC(=O)[C@H](Cc1ccc(O)cc1)NC(=O)[C@H](CC(=O)O)NC(=O)[C@H](CCC(=O)O)NC(=O)[C@@H](N)CC(N)=O)C(=O)N[C@@H](CC(=O)O)C(=O)N[C@@H](Cc1ccc(O)cc1)C(=O)O [RH5_131] (H-NEDYKNVDY-OH)
HLA-A*0101
  IC50: 8920 nM

## CC[C@H](C)[C@H](NC(=O)[C@@H](NC(=O)[C@H](Cc1ccccc1)NC(=O)[C@H](CC(=O)O)NC(=O)[C@H](CC(C)C)NC(=O)[C@@H](N)Cc1c[nH]cn1)C(C)C)C(=O)N[C@H](C(=O)N1CCC[C@H]1C(=O)N[C@@H](Cc1c[nH]cn1)C(=O)N[C@@H](Cc1ccc(O)cc1)C(=O)O)[C@@H](C)CC [RH5_170] (H-HLDFVIIPHY-OH)
HLA-A*0101
  IC50: 118000 nM

## N=C(N)NCCC[C@H](NC(=O)[C@H](Cc1ccc(O)cc1)NC(=O)[C@H](CO)NC(=O)[C@H](CC(=O)O)NC(=O)[C@H](CC(=O)O)NC(=O)[C@H](CC(N)=O)NC(=O)[C@H](CCCCN)NC(=O)[C@@H](N)CC(N)=O)C(=O)N[C@@H](Cc1ccc(O)cc1)C(=O)O [RH5_246] (H-NKNDDSYRY-OH)
HLA-A*0101
  IC50: 6680 nM

## DMSNEYSLFI [RH5_461]
HLA-A*0201
  IC50 (nM), in vitro HLA binding affinity: Non-Binder
